# Key:
# Format in all cases: cell-based, human
# [1] = system: proapoptotic protein Bax; assay: Assessment of apoptosis: active Bax expression (flow cytometry); conditions: HeLa cells, 24 h, IC50 concentration, p > 0.05
# Method: (§1) The aim of this study was to determine the expression of proteins that play a key role in apoptosis. The level of expression of the proapoptotic protein Bax, antiapoptotic protein Bcl-2, and the percentage of cells containing active caspase-3 was evaluated. […] Additionally, HeLa cells were fixed, permeabilized, and rinsed with ice-cold PBS (Fixation and Permeabilization Kit, eBioscience, San Diego, CA, USA). The cells were treated for 15 min at room temperature with a 1:1000 Bcl-2 fluorescein isothiocyanate (FITC) primary antibody (mhbcl01, Life Technologies, Carlsbad, CA, USA) to stain them. For further labeling, permeabilized HeLa cells were incubated with primary antibodies for active-Bax (N20, sc-493; Santa Cruz Biotech Inc., Dallas, TX, USA) and cleaved caspase-3 (#9661, Cell signaling Technology, Danvers, MA, USA) at a ratio of 1:1000 for 30 min. […] With the FC500 (Beckman Coulter), fluorescence of at least 15,000 events/samples had been measured. Negative control antibodies that matched the isotype were used to normalize the fluorescence intensity. The degree of expression of these proteins was indicated by the mean fluorescence intensities for Bax and Bcl-2 (MFIs), which were computed as the ratio of raw mean channel fluorescence to isotype control levels, respectively. […]
# [2] = system: antiapoptotic protein Bcl-2; assay: Assessment of apoptosis: Bcl-2 expression (flow cytometry); conditions: HeLa cells, 24 h, IC50 concentration, p > 0.05
# Method: as §1
# [3] = Annexin V/PI flow cytometry (type of cell death); conditions: human; HeLa cells, 24 h, IC50 concentration; representative plot; read-out: viable cells (Q4, lower left quadrant)
# Method: (§2) The type of cell death induced by compounds 3 and 8 was determined by the annexin V–fluorescein isothiocyanate (FITC)/propidium iodide (PI) Apoptosis Kit (BD Biosciences, Franklin Lakes, NJ, USA). […] Furthermore, tested HeLa cells were trypsinized, washed in PBS, centrifuged, and resuspended in 100 μL of ice-cold binding buffer. The tested cells were then stained with both 10 μL of Annexin V-FITC and 20 μL of […], incubated for 15 min in the dark at room temperature, and 400 μL of binding buffer was added to each tube. The obtained samples were measured with a flow cytometer Cytomics FC500 (Beckman Coulter, Brea, CA, USA). In addition, the obtained data were analyzed using FlowJo V10 Software. Measurements were presented as the representative density plots of Annexin V-FITC and PI staining and the average values of three independent experiments.
# [4] = system: HeLa cells; assay: Annexin V/PI flow cytometry (type of cell death)
# Method: as §2
# [5] = system: active caspase-3; assay: Assessment of apoptosis: cells containing active caspase-3 (flow cytometry); conditions: HeLa cells, 24 h, IC50 concentration, p < 0.05
# Method: as §1
compound,measurement,setting,value
"COc1ccc2cc([C@H](C)C(=O)NC(=S)Nc3ccccc3)ccc2c1 [Compound 8, (S)-2-(6-methoxynaphthalen-2-yl)-N-(phenylcarbamothioyl)propanamide]",Amount of proapoptotic Bax (in words),[1],insignificantly changed
same,Amount of the antiapoptotic protein Bcl-2 (in words),[2],insignificantly changed
same,viability at 24 h,[3],49.2%
same,Type of HeLa cell death induced (in words),"[4]; 24 h of treatment, p < 0.05",induced apoptosis
same,"late apoptotic cells (Q2, upper right quadrant)","[4]; HeLa cells, 24 h, IC50 concentration, Annexin V-FITC/PI",1–3%
same,Percentage of cells containing active caspase-3 (in words),[5],increased compared to the untreated cells

# From PMC10820527, “Synthesis, Characterization, and Investigation of Anti-Inflammatory and Cytotoxic Activities of Novel Thiourea Derivatives of Naproxen” (Pharmaceutics, 2023)
